Data as given in a melting point compilation (Tetko et al.; mined from patent text by program, amines drawn as free bases though some values may be those of a salt).

Row | Structure (SMILES) | melting point
1 | Fc1ccc([C@H]2CC[C@H](NCc3ccn4c(CC5CC5)nnc4c3C(F)(F)F)CC2)c(F)c1 | 110 °C
2 | Fc1ccc(N2CCN(Cc3ccc(CCl)cc3)CC2)cc1 | 81 to 83 °C
3 | C#CCc1c(C)nc(N)[nH]c1=O | 245 to 249 °C
4 | O=C1CCCc2ccc(=O)[nH]c21 | 253 °C
5 | Cc1cc(-c2cc(C(F)(F)F)n3ncc(-c4cccnc4)c3n2)ccc1C(F)(F)F | 177 °C
6 | NS(=O)(=O)c1cnc(-c2cn(-c3nc(-c4ccc(Cl)cc4)cc(C(F)(F)F)n3)cn2)s1 | 263 °C
7 | CC(C)(n1cncn1)C(O)(Cc1nc[nH]n1)c1ccc(C(F)(F)F)cc1F (stereo unspecified) | 174 to 175 °C
8 | CCCCCCCCOc1ccc(-c2ncc(O)cc2Cl)cc1 | 128 to 130 °C
9 | CCOC(=O)CCCN(C(=O)CN(C(=O)c1ccc(Cl)cc1)c1c(C)cccc1C)c1c(C)cccc1C | 150 to 151 °C
10 | CCOC(=O)C(C)Oc1ccc(Oc2cnc3cc(Cl)ccc3n2)cc1F (stereo unspecified) | 110 °C
11 | NC(=O)c1nc(-c2cccc(O)c2)nc2c1[nH]c(=O)n2[C@@H]1CCOC1 | 353 to 355 °C
12 | CON=Cc1cc(NC(=O)N2CCOCN2)c(Cl)cc1Cl | 205 to 208 °C
13 | CCCCCCCCCCCC1Cc2c(cccc2C(=O)O)N1 (racemic) | 105 to 108 °C
14 | CCc1nc(-c2ncn(-c3cccc(O)c3)c2C)no1 | 226 to 227 °C
15 | O=C1CC(c2cccc(-n3ccnc3)c2)=Nc2ccc(C#Cc3ccc(F)cc3)cc2N1 | 216 to 218 °C
16 | CC1(C)Cc2c(c(N3CCOCC3)nc3sc4c(N(CCO)CCN5CCOCC5)ncnc4c23)CO1 | 112 to 113 °C
17 | ClCc1ccc(CN=C(Nc2ccccc2-c2ccccc2)Nc2ccccc2-c2ccccc2)cc1 | 87 to 91.5 °C
18 | O=C1N(Cc2nc3cc(F)ccc3[nH]2)c2ccccc2C12COc1cc3c(cc12)OCO3 (stereo unspecified) | 138 to 142 °C
19 | CC1=NS(=O)(=O)N(Cc2ccncc2)C=C1 | 100 to 101 °C
20 | COc1cc(C=CC(CCc2ccco2)=NO)ccc1O | 110 to 120 °C

Row | Structure (SMILES) | melting point
21 | Cc1cc2c(Cl)c(C#N)cnc2s1 | 101 to 102 °C
22 | CC(C)CCOc1c(-c2ccc(S(C)(=O)=O)cc2)cnn(-c2ccc(F)cc2)c1=O | 117 to 120 °C
23 | c1cc2c(c(-c3nc4ncccc4o3)c1)CCCC2 | 87 to 90 °C
24 | COC(=O)/C=C/c1ccc(CC(C)NCC(O)c2cccc(C(F)(F)F)c2)cc1 (stereo unspecified) | 80 to 83 °C
25 | CCOC(OCC)C(N)c1nnnn1C (stereo unspecified) | 99 to 101 °C
26 | O=C(OCc1ccccc1)c1ccc(CCCOCCCCCCNCC(O)c2ccc(O)c(CO)c2)cc1 (stereo unspecified) | 51 to 52 °C
27 | O=c1[nH]c2ccccc2n1C1CCN(CC(O)CSc2ccc(F)cc2)CC1 (stereo unspecified) | 155 to 157 °C
28 | CCOc1cc(C(=O)CCCC2CCCCC2)c(OC)cc1C | 37 to 38 °C
29 | C[C@@H]1C[C@H](C)CN(S(=O)(=O)c2ccc(Cl)c(C(=O)NCC(=O)O)c2)C1 | 190 to 192 °C
30 | O=C1c2ccccc2C(=O)N1CCCCCCCCCCOc1ccc(-n2ccnc2)cc1 | 90 to 91 °C
31 | O=C(O)c1cc(Cl)cc2c1O[C@@H]1CCCC[C@H]21 (relative stereo) | 132 to 134 °C
32 | Cc1noc2cc3c(cc12)C1(CO3)C(=O)N(Cc2ccc(-c3cc(N)n[nH]3)cc2)c2ccccc21 (stereo unspecified) | 191 to 195 °C
33 | CSC1=NC2C=C(C(=O)NCC3CC3)C(NC(=O)c3cc(C(F)(F)F)nn3-c3ncccc3Cl)=C(Cl)C2S1 (stereo unspecified) | 221 to 223 °C
34 | COc1ccc(I)cc1CCCO | 68 to 70 °C
35 | O=S(c1[nH]c(-c2ccc(Cl)cc2)c(S(=O)(=O)C(F)(F)F)c1Br)C(F)(F)F (stereo unspecified) | 120 to 170 °C
36 | O=C1NCC(CCc2ccccc2Br)O1 (stereo unspecified) | 93.5 to 94.5 °C
37 | COC(=O)c1ncc(C(=O)O)cc1Cl | 182 to 184 °C
38 | CCOC(=O)C1=C(C)NC(N)=C(C(=O)OCC)C1c1cccc(Cl)c1 (stereo unspecified) | 157 to 159 °C
39 | CC1CN(c2ccc(Cl)c(Cl)c2)N=C1NC=O (stereo unspecified) | 150 to 152 °C
40 | OCCNCCNCc1ccc(-c2cc3ncnc(Nc4ccc5[nH]ccc5c4)c3s2)cc1 | 78 to 95 °C

Row | Structure (SMILES) | melting point
41 | O=C(CO/N=C/c1ccc([N+](=O)[O-])c(CO)c1)N1CCN(CC2CCCCC2)CC1 | 170 °C
42 | CC(=O)Nc1nc(Cl)c(NC=O)c(N[C@@H]2C=C[C@H](CO)C2)n1 (relative stereo) | 194 to 195 °C
43 | N#Cc1nn(-c2c(Cl)cc(C(F)(F)F)cc2Cl)cc1C=O | 168 °C
44 | COc1cc(C(C)=O)ccc1OCCCN1CCC(C(O)(c2ccc(F)cc2)c2ccc(F)cc2)C1 (stereo unspecified) | 44 to 46 °C
45 | O=C(c1cc(C(F)(F)F)ccc1Cl)c1cc(C(F)(F)F)ccc1Cl | 70 to 72 °C
46 | Cc1oc(-c2ccccc2)nc1COc1ccc(CON=C(CCCCCCC(=O)O)c2ccc(Cl)cc2)cc1 | 54 to 57 °C
47 | CCCc1cc(Cl)c2oc(Cc3ccc(OC)cc3)c(C)c2c1OC(=O)OCC | 99 to 100 °C
48 | CC(C)(O)CCNC(=O)c1nn(C2CCCCO2)cc1NC(=O)c1ccccn1 (stereo unspecified) | 138 to 139 °C
49 | O=c1oc(-c2ccc(-n3ccnc3)c(C(F)(F)F)c2)nn1Cc1cc(Cl)ccc1O | 178 to 180 °C
50 | CC(C)(C)c1cc(-c2nn(Cc3cccs3)c3ncccc23)cc(C(C)(C)C)c1O | 138 to 141 °C
51 | CC(C)(C)OC(=O)N1CCCC(c2nc3c(N[C@H]4[C@@H](C(N)=O)[C@@H]5C=C[C@H]4C5)ccnc3[nH]2)C1 (stereo partly specified) | 222 to 225 °C
52 | CCC(CC)O[C@@H]1C=C(C(=O)O)C[C@H](CC=O)[C@H]1NC(C)=O | 70 to 71 °C
53 | CN1CCN(c2cc(-c3cnc4c(c3)N(C(=O)Cc3cc(F)ccc3F)CCN4)ccn2)CC1 | > 300 °C
54 | Cc1cc2ncc(-c3ccsc3)nc2cc1C | 142 to 144 °C
55 | O=C(NCc1ccc(C(=O)C(F)(F)F)cc1)c1cccnc1Oc1cccnc1 | 134 to 136 °C
56 | Cc1ccc(Oc2ccc3c4c(cccc24)C2=NC(=O)C(C#N)=C23)cc1 | 232 to 233 °C
57 | CCOc1ccc2c(c1)n(C1CCCCC1)c(=O)n2S(=O)(=O)c1ccc(N)cc1OC | 228 °C
58 | BrCCCCCCCc1ccc(OCc2ccccc2)cc1 | 32 to 34 °C

Second part, the compound after the results:

Row | melting point | Structure (SMILES)
59 | 51 to 52 °C | Cc1occc(=O)c1OCc1ccccc1
60 | 128 to 131 °C | CCc1nccc(NC(=O)Cc2ccc(Oc3ccc([N+](=O)[O-])cn3)cc2)c1Cl
61 | 153 °C | CN(C)CC(=O)Nc1cccc2nc(N[C@@H]3CCc4ccccc43)ccc12
62 | 190 to 191 °C | Cc1ccc(NC(=O)c2cccc(C(F)(F)F)c2)cc1NC(=O)N(C)c1cc(Nc2ccc(N3CCN(C)CC3)cc2)ncn1
63 | 196 °C | COc1cncc(OC)c1C(=O)Nc1ccc(C[C@H](NC(=O)Nc2ccccc2S(=O)(=O)c2ccccc2)C(=O)O)cc1
64 | 56 °C | FC(F)(F)c1cccc(N2CCN(Cc3ccc(-c4ccccc4)o3)CC2)c1
65 | 210 to 212 °C | COc1ccc(C(=O)Nc2ccccc2)cc1NCc1cccc(C(=O)O)c1
66 | 181 to 183 °C | O=C(Cc1ccc(Oc2ccccc2)cc1)NNC(=O)c1ccc(O)cc1
67 | 158 °C | CCOC1=NC(N)=C(C(=O)OC)C(c2cccc(Cl)c2)C1C(=O)OC (stereo unspecified)
68 | 324 °C | CNC(=O)c1c[nH]c2ccc(C(=O)c3c(C)c(OC)c4ccccn34)cc2c1=O
69 | 105 to 106 °C | Cc1oc(-c2ccccc2)nc1CCOc1ccc(CCC#N)cn1
70 | 141 to 143 °C | CC(=O)C(Cl)=NNc1ccc(C)cc1
71 | 141 °C | CC(C)(C)c1ccc(/C=C/C(=O)Nc2ccccc2)cc1
72 | 208 °C | CCOC(=O)C1=C(C)N=C(N)C(Cc2ccccc2)(C(=O)OCC)C1c1cccc([N+](=O)[O-])c1 (stereo unspecified)
73 | 194 to 195 °C | CC1(C)c2ccc([N+](=O)[O-])cc2C(NC(=O)Nc2ccccc2)C1O (stereo unspecified)
74 | 205 to 207 °C | O=C(CSc1nc2ccccc2s1)NC1(C(=O)O)Cc2ccc(-c3ccc(Cl)cc3)cc2C1 (stereo unspecified)
75 | 108 to 109 °C | CCOC1(NC(=O)c2ccccc2)CC1
76 | 244 to 247 °C | Cc1ncsc1NC(=O)Nc1ccc(-n2nc(C3CC3)cc2C(F)(F)F)nc1
77 | 165 to 166 °C | CC(C)n1nc(-c2cc(C(=O)N3CCN(C)CC3)cnc2-c2ccccc2)ccc1=O

Row | melting point | Structure (SMILES)
78 | 210 °C | CCc1ccc2c(c1)C=Cc1oc(C)nc1C2c1cn(Cc2nc(C(=O)O)co2)c(=O)[nH]c1=S (stereo unspecified)
79 | 144 to 145 °C | CCCN1C(=O)C2(c3ccccc3)CC(c3ccc(N)cc3)(C2)C1=O
80 | 117 °C | CCC(=O)c1cc(-c2cccc(OCc3ccc(COC(=O)c4ccccc4)c(COC(=O)c4ccccc4)c3)c2)cs1
81 | 198 to 200 °C | Cc1c(Cl)cccc1-n1nc(C(N)=O)nc1-c1ccccc1
82 | 80 to 81 °C | OCCCc1ccc2ccccc2c1OCc1ccccc1
83 | 85.5 to 89 °C | CN(C)c1ccccc1C(=O)N1CCC(=O)c2ccc(Cl)cc21
84 | 177 to 179 °C | CCOc1ccccc1C(=O)Nc1c(OC)cccc1C(N)=O
85 | 115 to 116 °C | CCCCCC(C#Cc1ccc(C(=O)O)cc1)c1ccc2c(c1)C(C)(C)CCC2(C)C (racemic)
86 | 86 to 88 °C | Cc1ccc(Nc2cccc(O)c2)cc1
87 | 210 °C | Cc1cc(Cc2ccc(NC(=O)NCCO)cc2)n(C)c1C(=O)c1ccc(Cl)cc1
88 | 75 °C | Cc1c(C(=O)N(C)c2ccccc2)nc2n1CCc1ccccc1C2OC1CCN(C)CC1 (stereo unspecified)
89 | 186 to 188 °C | O=C(Nc1cccc(-c2nnn[nH]2)c1)Oc1ccc([N+](=O)[O-])cc1
90 | 170 to 171 °C | COc1cccc(N=C(NC#N)Oc2ccccc2)c1
91 | 143 to 150 °C | COc1cc2c(cc1OC)N(C(=O)OCc1ccccc1)C(C)C(=CN)C2=O (stereo unspecified)
92 | 147 to 148 °C | Ic1cnc2c(c1)N(Cc1ccccc1)CCN2
93 | 119 °C | COc1ccc(C2(O)c3ccccc3C(=O)N2CCc2cccc(OC)c2)cc1 (stereo unspecified)
94 | 127 to 132 °C | CCc1ccc(C2C(=O)Oc3ccccc32)cc1 (stereo unspecified)
95 | 155 °C | Cc1ccc2ccc(N3C(=O)c4ccccc4C3CC(=O)CCC(C)C)nc2n1 (stereo unspecified)
96 | 169 to 172 °C | COc1cccc(C(=O)Nc2ccc(-n3nc(C(F)(F)F)cc3C(F)(F)F)cc2)c1
